Experimental data taken from PubChem BioAssay (NCI).
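Five compound concentrations were applied to cells in 96-well plates for 48 hours; endpoints were derived by simple linear interpolation of the resulting dose-response curve. GI50 marks 50% less growth. TGI marks complete inhibition of growth.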

What was measured:
Assay in all cases: growth of human tumour cells (NCI), 48 h
KM12 colon = test system: KM12 colon
RXF 393 renal = test system: RXF 393 renal
M14 melanoma = test system: M14 melanoma
NCI-H226 lung = test system: NCI-H226 lung
SK-MEL-2 melanoma = test system: SK-MEL-2 melanoma
A549 NSCLC = test system: A549 NSCLC
NCI-H460 lung = test system: NCI-H460 lung
NCI/ADR-RES ovarian = test system: NCI/ADR-RES ovarian
HL-60(TB) leukemia = test system: HL-60(TB) leukemia
OVCAR-8 ovarian = test system: OVCAR-8 ovarian

Structure (SMILES) | TGI (KM12 colon) [µM] | TGI (RXF 393 renal) [µM] | TGI (M14 melanoma) [µM] | TGI (NCI-H226 lung) [µM] | TGI (SK-MEL-2 melanoma) [µM] | TGI (A549 NSCLC) [µM] | TGI (NCI-H460 lung) [µM] | TGI (NCI/ADR-RES ovarian) [µM] | TGI (HL-60(TB) leukemia) [µM] | TGI (OVCAR-8 ovarian) [µM] | GI50 (KM12 colon) [µM] | GI50 (RXF 393 renal) [µM] | GI50 (M14 melanoma) [µM] | GI50 (NCI-H226 lung) [µM] | GI50 (SK-MEL-2 melanoma) [µM] | GI50 (A549 NSCLC) [µM] | GI50 (NCI-H460 lung) [µM] | GI50 (HL-60(TB) leukemia) [µM] | GI50 (OVCAR-8 ovarian) [µM]
COc1ccc2c(c1)/c(=C/C#N)c1c3ccccc3[n+](C)n21 | 17.9 | 50.1 | 32.4 | 21.4 | 36.1 | 16.2 | 32.9 | > 100 | > 48.3 | > 100 |  |  |  |  |  |  |  |  | 
O=c1[nH]c2ccc(CC(=S)N3CCOCC3)cc2o1 | > 100 | > 100 | > 100 | > 100 | > 100 |  | > 100 | > 100 | > 100 | > 100 |  |  |  |  |  |  |  |  | 
C(=N\NC1=NCCN1)/c1ccc2ccccc2c1 | 28 | 34.6 |  | 51.2 | 38 | 29.5 | 29.5 | 39.4 | 34.5 | 35 |  |  |  |  |  |  |  |  | 
COc1cccc(OC)c1NC(=O)C(=O)Nn1c(NNC(=O)c2ccncc2)nc2ccccc2c1=O | > 100 | > 100 | > 100 | > 100 | > 100 | > 100 | > 100 | > 100 | > 100 | > 100 |  |  |  |  |  |  |  |  | 
CC1CN(CCO)CCN1c1ccccc1 (centres undefined) | > 100 | > 100 | > 100 | > 100 | > 100 | > 100 | > 100 | > 100 | 99 | > 100 |  |  |  |  |  |  |  |  | 
CCC(Nc1ncnc2nc[nH]c12)C(=O)O (centres undefined) | > 100 | > 100 | > 100 | > 100 | > 100 | > 100 | > 100 | > 100 | > 100 | > 100 |  |  |  |  |  |  |  |  | 
CN(C)CC1CCC/C(=C\c2ccc(OC(=O)/C=C/c3ccc(Cl)cc3)cc2)C1=O (centres undefined) | 4.38 | 4.08 | 20 | 20.2 | 25.1 | 21.6 | 18.1 | 23 | 3.22 | 19.3 |  |  |  |  |  |  |  |  | 
CN(C)S(=O)(=O)c1nc(Cl)c2[nH]cnc2n1 | > 100 | > 100 | > 100 | > 100 | > 100 | > 100 |  | > 100 | > 100 | > 100 |  |  |  |  |  |  |  |  | 
Cc1nc2ccc(NC3OCC(O)C(O)C3O)cc2c(=O)n1-c1ccccc1 (centres undefined) | > 100 | > 100 |  | > 100 | > 100 |  | > 100 | > 100 | > 100 | > 100 |  |  |  |  |  |  |  |  | 
O=c1[nH]cnc2c1cnn2Cc1cnnn1COCCO | > 100 | > 100 | > 100 | > 100 | > 100 | > 100 | > 100 | > 100 | > 100 | > 100 |  |  |  |  |  |  |  |  | 
O=C1Nc2ccc(Br)cc2/C1=N/N1C(=O)C(=O)N(C2CCCCC2)C1=S | 14.6 | 21.8 | 14.6 | 23.5 | 4.34 | 19.2 | 15.7 | 13.5 | 7.23 |  |  |  |  |  |  |  |  |  | 
CSc1nc(NCc2ccccc2)c2cnn(COCCO)c2n1 | > 100 | > 100 | > 100 | > 100 | > 100 | > 100 | > 100 | > 100 | > 100 | > 100 |  |  |  |  |  |  |  |  | 
O=S(=O)(/N=C(\NO)Nc1ccc(Cl)cc1)c1cc2ccccc2s1 | 57.2 | 36 | 33.3 | 33.2 | 30.4 | 38.1 | > 100 | 38.7 | 45.3 | 30.7 |  |  |  |  |  |  |  |  | 
Cc1cc(C)c2c(n1)S(=O)(=O)N(CCCN1CCN(c3cccc(Cl)c3)CC1)/C(=C(\O)c1ccc(Br)cc1)C2=O | > 100 | 83.7 | > 100 |  | 69.4 | 71 | 33.2 | > 100 | 45.4 | > 100 |  |  |  |  |  |  |  |  | 
O=C(NC1C/C(=N/O)c2c(Br)sc(Br)c21)C(F)(F)F (centres undefined) | > 100 | > 100 | > 100 | 97.7 | 90.1 | 96.9 | 97.2 | 88.6 | > 100 | 63.2 |  |  |  |  |  |  |  |  | 
CSc1ncc2c(n1)-c1ccccc1OC2 | > 100 | > 100 | > 100 | > 100 | > 100 | > 100 | > 100 | > 100 | > 100 | > 100 |  |  |  |  |  |  |  |  | 
COc1ccc([I+]c2ccc(OC)cc2)cc1 | > 100 | > 100 | > 100 | > 100 | > 100 | > 100 | > 100 | > 100 | > 100 | > 100 | 6.63 | 27.3 | 13.4 | 14.4 | 43.9 | 5.14 | 5.28 | 6.4 | 3.27

Structure (SMILES) | TGI (KM12 colon) [µM] | TGI (RXF 393 renal) [µM] | TGI (M14 melanoma) [µM] | TGI (NCI-H226 lung) [µM] | TGI (SK-MEL-2 melanoma) [µM] | TGI (A549 NSCLC) [µM] | TGI (NCI-H460 lung) [µM] | TGI (NCI/ADR-RES ovarian) [µM] | TGI (HL-60(TB) leukemia) [µM] | TGI (OVCAR-8 ovarian) [µM] | GI50 (KM12 colon) [µM] | GI50 (RXF 393 renal) [µM] | GI50 (M14 melanoma) [µM] | GI50 (NCI-H226 lung) [µM] | GI50 (SK-MEL-2 melanoma) [µM] | GI50 (A549 NSCLC) [µM] | GI50 (NCI-H460 lung) [µM] | GI50 (HL-60(TB) leukemia) [µM] | GI50 (OVCAR-8 ovarian) [µM]
N#CC1=C(N)N(/N=C/c2ccco2)C(c2ccco2)C1(C#N)C#N (centres undefined) | 28.7 | 25.8 | 43.6 | 37.7 | 47.4 | 56.2 |  | 61.2 | 7.69 | 41.6 |  |  |  |  |  |  |  |  | 
CNC(=O)CNC(=O)N(C[C@@H]1CCCN1C(=O)[C@H](CC(C)C)NC(=O)OC(C)(C)C)C(C)C | > 100 | > 100 | > 100 | > 100 | > 100 | > 100 | > 100 | > 100 | > 100 | > 100 |  |  |  |  |  |  |  |  | 
CCCCCCCCCCCCOC1C(COCCN2CCCCC2)OC2OC(C)(C)OC21 (centres undefined) | 3.06 | 3.4 | 2.99 | 17.6 | 3.14 | 19.9 | 3.48 | 14.4 | 3.02 | 3.41 |  |  |  |  |  |  |  |  | 
COc1cc(/C=C/C(=N\NC(N)=S)c2sc(NNC(C)=O)nc2C)ccc1O | > 100 | > 100 | > 100 | > 100 | > 100 | > 100 | > 100 | > 100 | > 100 | > 100 |  |  |  |  |  |  |  |  | 
CCOC(=O)c1cc(C)nc2c1c(=O)n(-c1ccccc1)c(=O)n2CCCCN1CCN(c2ncccn2)CC1 | > 100 | > 100 | > 100 | > 100 | > 100 | > 100 |  | > 100 | 57.1 | > 100 |  |  |  |  |  |  |  |  | 
CCSc1nc(N/N=C/c2cccs2)c2cnn(CO)c2n1 | 12.4 | 13.9 | 22.9 | 9.09 | 24.4 | 24.1 | 18.6 | 15.9 | 42.1 | 14.9 |  |  |  |  |  |  |  |  | 
CCOS(=O)(=O)c1ccc(-c2c3nc(c(-c4ccc(S(=O)(=O)OCC)cc4)c4ccc([nH]4)c(-c4ccc(S(=O)(=O)OCC)cc4)c4nc(c(-c5ccc(S(=O)(=O)OCC)cc5)c5ccc2[nH]5)C=C4)C=C3)cc1 | > 31.6 | > 31.6 | > 31.6 | > 100 | > 31.6 | > 31.6 | > 31.6 | > 31.6 | > 31.6 | > 31.6 |  |  |  |  |  |  |  |  | 
COc1ccc(Nc2nc(N)c(C(=O)c3ccc(Cl)cc3)s2)cc1 | 0.536 | 0.0323 | > 64.4 | 0.117 | 38.6 | 22.3 | 4.62 | 29.7 | < 0.0331 | 15 |  |  |  |  |  |  |  |  | 
COC(=O)C(=O)C(C(=O)OC)C(=O)C(=O)Nc1c(Cl)cc([N+](=O)[O-])cc1Cl (centres undefined) | > 100 | > 100 | > 100 | > 100 | > 100 | > 100 | > 100 | > 100 | > 100 | > 100 |  |  |  |  |  |  |  |  | 
O=C1CC(c2ccccc2)n2c(nc3ccccc32)N1 (centres undefined) | > 100 | > 100 | > 100 | > 100 | 47.9 | > 100 | > 100 | > 100 | > 100 | > 100 |  |  |  |  |  |  |  |  | 
COC(=O)c1ccccc1C1CN=NC12Cc1ccc3c(c1C2=O)CCC3 (centres undefined) | > 100 | > 100 | > 100 | > 100 | > 100 | > 100 | > 100 | > 100 | > 100 | > 100 |  |  |  |  |  |  |  |  | 
COc1ccc(-c2cc(-c3ccc(Nc4ccnc5cc(Cl)ccc45)cc3)[nH]c(=O)c2C#N)cc1 | > 100 | > 100 | > 100 | > 100 | > 100 | > 100 | > 100 | > 100 | > 100 | > 100 |  |  |  |  |  |  |  |  | 
COc1ccc(-c2nnc3n(C)c4ccccc4n3c2=O)cc1 | > 100 | 82.9 | > 100 | > 100 | > 100 | > 100 | > 100 | > 100 | > 100 | > 100 |  |  |  |  |  |  |  |  | 
CN1C(=O)C23CCCC2CC1(c1ccccc1)S3 (centres undefined) | > 100 | > 100 | > 100 | > 100 | > 100 | > 100 |  | > 100 | > 100 | > 100 |  |  |  |  |  |  |  |  | 
Cc1ccnc(Nc2[nH]c(C(=O)c3ccc(Cl)cc3)c(N)c2C(=S)Nc2ccccc2)c1 | 32.4 | 32.5 | 31.9 | 45.6 | 21.5 | 53 | 27.3 | 11.1 | 64.6 | 34.5 |  |  |  |  |  |  |  |  | 
C(=C/c1nnnn1-c1ccccc1)/Nc1ccccc1 | > 100 | > 100 | 77.3 | 61.6 | 20.6 | > 100 | > 100 | 80.2 | > 100 | > 100 |  |  |  |  |  |  |  |  | 
O=C(O)c1nn(-c2ccccc2)nc1-c1nn(-c2ccccc2)nc1C(=O)O | > 100 | > 100 | > 100 | > 100 | > 100 | > 100 | > 100 | > 100 | > 100 | > 100 |  |  |  |  |  |  |  |  | 
